Data taken from US20260284018A1, “DUAL INHIBITORS OF DYRK1A AND 5-HT2 FOR TREATING A BRAIN DISORDER” (THE REGENTS OF THE UNIVERSITY OF CALIFORNIA, priority 2023, published 2026).

What was measured:
[1] = target: T1, ABL1-phosphorylated (Homo sapiens, UniProt P00519); test: KINOMEscan scanEDGE; type: binding; conditions: read-out: Percent Control
T1 construct: purchased Eurofins DiscoverX
Description: (§1) Kinome Scan. Compound HTW_A_8 fumarate was screened against 97 kinases at a single concentration of 10 μM at Eurofins DiscoverX using their KINOMEscan™ scanEDGE assay. The results are reported as the % activity relative to DMSO control, where lower values indicate higher affinity. See Table 1 for the full kinome profile.

[2] = target: T2, ADCK3 (Homo sapiens, UniProt Q8NI60); test: KINOMEscan scanEDGE; type: binding; conditions: read-out: Percent Control
T2 construct: purchased Eurofins DiscoverX
Description: as §1

[3] = target: T3, AKT1 (Homo sapiens, UniProt P31749); test: KINOMEscan scanEDGE; type: binding; conditions: read-out: Percent Control
T3 construct: purchased Eurofins DiscoverX
Description: as §1

[4] = target: T4, BMPR2 (Homo sapiens, UniProt Q13873); test: KINOMEscan scanEDGE; type: binding; conditions: read-out: Percent Control
T4 construct: purchased Eurofins DiscoverX
Description: as §1

[5] = target: T5, BRAF(V600E) (Homo sapiens, UniProt P15056, V600E); test: KINOMEscan scanEDGE; type: binding; conditions: read-out: Percent Control
T5 construct: purchased Eurofins DiscoverX
Description: as §1

[6] = target: T6, CDK7 (Homo sapiens, UniProt P50613); test: KINOMEscan scanEDGE; type: binding; conditions: read-out: Percent Control
T6 construct: purchased Eurofins DiscoverX
Description: as §1

[7] = target: T7, CDK9 (Homo sapiens, UniProt P50750); test: KINOMEscan scanEDGE; type: binding; conditions: read-out: Percent Control
T7 construct: purchased Eurofins DiscoverX
Description: as §1

[8] = target: T8, CHEK1 (Homo sapiens, UniProt O14757); test: KINOMEscan scanEDGE; type: binding; conditions: read-out: Percent Control
T8 construct: purchased Eurofins DiscoverX
Description: as §1

[9] = target: T9, CSNK1D (Homo sapiens, UniProt P48730); test: KINOMEscan scanEDGE; type: binding; conditions: read-out: Percent Control
T9 construct: purchased Eurofins DiscoverX
Description: as §1

[10] = target: T10, ERBB4 (Homo sapiens, UniProt Q15303); test: KINOMEscan scanEDGE; type: binding; conditions: read-out: Percent Control
T10 construct: purchased Eurofins DiscoverX
Description: as §1

[11] = target: T11, FAK (Homo sapiens, UniProt Q05397); test: KINOMEscan scanEDGE; type: binding; conditions: read-out: Percent Control
T11 construct: purchased Eurofins DiscoverX
Description: as §1

[12] = target: T12, FGFR2 (Homo sapiens, UniProt P21802); test: KINOMEscan scanEDGE; type: binding; conditions: read-out: Percent Control
T12 construct: purchased Eurofins DiscoverX
Description: as §1

[13] = target: T13, FGFR3 (Homo sapiens, UniProt P22607); test: KINOMEscan scanEDGE; type: binding; conditions: read-out: Percent Control
T13 construct: purchased Eurofins DiscoverX
Description: as §1

[14] = target: T14, FLT3 (Homo sapiens, UniProt P36888); test: KINOMEscan scanEDGE; type: binding; conditions: read-out: Percent Control
T14 construct: purchased Eurofins DiscoverX
Description: as §1

[15] = target: T15, JNK1 (Homo sapiens, UniProt P45983); test: KINOMEscan scanEDGE; type: binding; conditions: read-out: Percent Control
T15 construct: purchased Eurofins DiscoverX
Description: as §1

[16] = target: T16, JNK2 (Homo sapiens, UniProt P45984); test: KINOMEscan scanEDGE; type: binding; conditions: read-out: Percent Control
T16 construct: purchased Eurofins DiscoverX
Description: as §1

[17] = target: T17, KIT(D816V) (Homo sapiens, UniProt P10721, D816V); test: KINOMEscan scanEDGE; type: binding; conditions: read-out: Percent Control
T17 construct: purchased Eurofins DiscoverX
Description: as §1

[18] = target: T18, MARK3 (Homo sapiens, UniProt P27448); test: KINOMEscan scanEDGE; type: binding; conditions: read-out: Percent Control
T18 construct: purchased Eurofins DiscoverX (KINOMEscan scanEDGE service)
Description: as §1

[19] = target: T19, MLK1 (Homo sapiens, UniProt P80192); test: KINOMEscan scanEDGE; type: binding; conditions: read-out: Percent Control
T19 construct: purchased Eurofins DiscoverX (KINOMEscan scanEDGE service)
Description: as §1

[20] = target: T20, PDGFRA (Homo sapiens, UniProt P16234); test: KINOMEscan scanEDGE; type: binding; conditions: read-out: Percent Control
T20 construct: purchased Eurofins DiscoverX (KINOMEscan scanEDGE service)
Description: as §1

[21] = target: T21, PIK3C2B (Homo sapiens, UniProt O00750); test: KINOMEscan scanEDGE; type: binding; conditions: read-out: Percent Control
T21 construct: purchased Eurofins DiscoverX (KINOMEscan scanEDGE service)
Description: as §1

[22] = target: T22, PIM2 (Homo sapiens, UniProt Q9P1W9); test: KINOMEscan scanEDGE; type: binding; conditions: read-out: Percent Control
T22 construct: purchased Eurofins DiscoverX (KINOMEscan scanEDGE service)
Description: as §1

[23] = target: T23, PIM3 (Homo sapiens, UniProt Q86V86); test: KINOMEscan scanEDGE; type: binding; conditions: read-out: Percent Control
T23 construct: purchased Eurofins DiscoverX (KINOMEscan scanEDGE service)
Description: as §1

[24] = target: T24, PKAC-alpha (Homo sapiens, UniProt P17612); test: KINOMEscan scanEDGE; type: binding; conditions: read-out: Percent Control
T24 construct: purchased Eurofins DiscoverX KINOMEscan scanEDGE
Description: as §1

[25] = target: T25, RET (Homo sapiens, UniProt P07949); test: KINOMEscan scanEDGE; type: binding; conditions: read-out: Percent Control
T25 construct: purchased Eurofins DiscoverX KINOMEscan scanEDGE
Description: as §1

[26] = target: T26, ROCK2 (Homo sapiens, UniProt O75116); test: KINOMEscan scanEDGE; type: binding; conditions: read-out: Percent Control
T26 construct: purchased Eurofins DiscoverX KINOMEscan scanEDGE
Description: as §1

[27] = target: T27, RSK2(Kin.Dom.1-N-terminal) (Homo sapiens, UniProt P51812); test: KINOMEscan scanEDGE; type: binding; conditions: read-out: Percent Control
T27 construct: RSK2(Kin.Dom.1-N-terminal); purchased Eurofins DiscoverX KINOMEscan scanEDGE
Description: as §1

[28] = target: T28, SRPK3 (Homo sapiens, UniProt Q9UPE1); test: KINOMEscan scanEDGE; type: binding; conditions: read-out: Percent Control
T28 construct: purchased Eurofins DiscoverX KINOMEscan scanEDGE
Description: as §1

[29] = target: T29, TIE2 (Homo sapiens, UniProt Q02763); test: KINOMEscan scanEDGE; type: binding; conditions: read-out: Percent Control
T29 construct: purchased Eurofins DiscoverX KINOMEscan scanEDGE
Description: as §1

[30] = target: T30, TSSK1B (Homo sapiens, UniProt Q9BXA7); test: KINOMEscan scanEDGE; type: binding; conditions: read-out: Percent Control
T30 construct: purchased Eurofins DiscoverX KINOMEscan scanEDGE
Description: as §1

[31] = target: T31, VEGFR2 (Homo sapiens, UniProt P35968); test: KINOMEscan scanEDGE; type: binding; conditions: read-out: Percent Control
T31 construct: purchased Eurofins DiscoverX KINOMEscan scanEDGE
Description: as §1

[32] = target: T32, DCAMKL1 (Homo sapiens, UniProt O15075); conditions: 10 μM; cited from earlier work
T32 construct: purchased Eurofins DiscoverX

[33] = target: T10, ERBB4; conditions: 10 μM; cited from earlier work
[34] = target: T16, JNK2; conditions: 10 μM; cited from earlier work
[35] = target: T33, PIK3CG (Homo sapiens, UniProt P48736); conditions: 10 μM; cited from earlier work
T33 construct: purchased Eurofins DiscoverX (KINOMEscan scanEDGE service)

[36] = target: T23, PIM3; conditions: 10 μM; cited from earlier work
[37] = target: T25, RET; conditions: 10 μM; cited from earlier work
[38] = target: T27, RSK2(Kin.Dom.1-N-terminal); conditions: 10 μM; cited from earlier work

T10 sequence (Q15303 26-1308): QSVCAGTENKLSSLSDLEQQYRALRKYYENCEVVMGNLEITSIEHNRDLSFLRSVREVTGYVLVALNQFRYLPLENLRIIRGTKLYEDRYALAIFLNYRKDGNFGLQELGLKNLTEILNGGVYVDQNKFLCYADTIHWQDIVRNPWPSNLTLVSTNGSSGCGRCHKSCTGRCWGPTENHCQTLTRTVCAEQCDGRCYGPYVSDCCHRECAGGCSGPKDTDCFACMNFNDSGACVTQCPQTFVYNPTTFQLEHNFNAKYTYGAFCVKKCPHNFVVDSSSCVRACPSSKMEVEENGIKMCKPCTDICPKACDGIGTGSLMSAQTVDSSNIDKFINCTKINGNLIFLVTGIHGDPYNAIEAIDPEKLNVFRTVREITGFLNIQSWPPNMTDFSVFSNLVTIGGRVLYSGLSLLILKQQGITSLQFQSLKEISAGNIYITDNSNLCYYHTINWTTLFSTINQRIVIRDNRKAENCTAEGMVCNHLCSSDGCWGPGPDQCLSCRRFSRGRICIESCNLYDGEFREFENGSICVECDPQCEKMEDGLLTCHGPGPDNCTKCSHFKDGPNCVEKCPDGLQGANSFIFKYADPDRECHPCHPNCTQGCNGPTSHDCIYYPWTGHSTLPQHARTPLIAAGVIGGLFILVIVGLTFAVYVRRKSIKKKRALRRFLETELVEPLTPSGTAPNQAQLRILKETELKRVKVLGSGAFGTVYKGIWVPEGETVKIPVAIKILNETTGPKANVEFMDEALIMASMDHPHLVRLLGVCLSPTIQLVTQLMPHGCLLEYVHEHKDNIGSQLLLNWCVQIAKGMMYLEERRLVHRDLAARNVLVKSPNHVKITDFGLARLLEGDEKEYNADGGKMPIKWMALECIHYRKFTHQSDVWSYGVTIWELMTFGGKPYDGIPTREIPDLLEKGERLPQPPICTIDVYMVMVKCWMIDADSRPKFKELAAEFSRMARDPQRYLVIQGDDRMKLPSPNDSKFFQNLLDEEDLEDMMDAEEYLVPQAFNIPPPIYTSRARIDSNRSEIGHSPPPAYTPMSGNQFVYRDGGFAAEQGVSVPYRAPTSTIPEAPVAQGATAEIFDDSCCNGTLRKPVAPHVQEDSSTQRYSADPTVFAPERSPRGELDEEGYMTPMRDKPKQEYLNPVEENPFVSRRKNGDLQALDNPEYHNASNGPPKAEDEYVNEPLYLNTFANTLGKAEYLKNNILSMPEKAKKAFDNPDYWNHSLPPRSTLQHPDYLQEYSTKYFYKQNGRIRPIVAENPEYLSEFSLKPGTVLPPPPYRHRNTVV
T27 sequence (P51812 68-327 limits assumed): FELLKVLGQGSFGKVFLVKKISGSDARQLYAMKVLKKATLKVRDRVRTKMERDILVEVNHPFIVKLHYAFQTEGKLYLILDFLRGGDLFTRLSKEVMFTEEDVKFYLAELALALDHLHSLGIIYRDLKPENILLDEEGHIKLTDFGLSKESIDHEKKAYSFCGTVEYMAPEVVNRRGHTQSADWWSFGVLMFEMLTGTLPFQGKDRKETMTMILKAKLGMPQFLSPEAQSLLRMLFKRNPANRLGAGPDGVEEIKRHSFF
T16 sequence (P45984 whole entry): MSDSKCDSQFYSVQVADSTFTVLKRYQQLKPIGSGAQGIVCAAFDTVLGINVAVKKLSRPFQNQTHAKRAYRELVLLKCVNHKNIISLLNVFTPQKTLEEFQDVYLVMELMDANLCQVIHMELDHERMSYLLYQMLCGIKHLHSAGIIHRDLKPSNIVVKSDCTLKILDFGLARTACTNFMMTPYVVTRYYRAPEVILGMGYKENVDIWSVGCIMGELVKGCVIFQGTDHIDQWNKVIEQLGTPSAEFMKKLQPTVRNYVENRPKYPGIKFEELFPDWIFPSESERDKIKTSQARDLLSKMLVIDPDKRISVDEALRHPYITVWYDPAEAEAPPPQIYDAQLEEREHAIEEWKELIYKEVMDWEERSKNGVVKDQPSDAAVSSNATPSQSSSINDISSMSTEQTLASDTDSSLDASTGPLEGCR
T25 sequence (P07949 29-1114): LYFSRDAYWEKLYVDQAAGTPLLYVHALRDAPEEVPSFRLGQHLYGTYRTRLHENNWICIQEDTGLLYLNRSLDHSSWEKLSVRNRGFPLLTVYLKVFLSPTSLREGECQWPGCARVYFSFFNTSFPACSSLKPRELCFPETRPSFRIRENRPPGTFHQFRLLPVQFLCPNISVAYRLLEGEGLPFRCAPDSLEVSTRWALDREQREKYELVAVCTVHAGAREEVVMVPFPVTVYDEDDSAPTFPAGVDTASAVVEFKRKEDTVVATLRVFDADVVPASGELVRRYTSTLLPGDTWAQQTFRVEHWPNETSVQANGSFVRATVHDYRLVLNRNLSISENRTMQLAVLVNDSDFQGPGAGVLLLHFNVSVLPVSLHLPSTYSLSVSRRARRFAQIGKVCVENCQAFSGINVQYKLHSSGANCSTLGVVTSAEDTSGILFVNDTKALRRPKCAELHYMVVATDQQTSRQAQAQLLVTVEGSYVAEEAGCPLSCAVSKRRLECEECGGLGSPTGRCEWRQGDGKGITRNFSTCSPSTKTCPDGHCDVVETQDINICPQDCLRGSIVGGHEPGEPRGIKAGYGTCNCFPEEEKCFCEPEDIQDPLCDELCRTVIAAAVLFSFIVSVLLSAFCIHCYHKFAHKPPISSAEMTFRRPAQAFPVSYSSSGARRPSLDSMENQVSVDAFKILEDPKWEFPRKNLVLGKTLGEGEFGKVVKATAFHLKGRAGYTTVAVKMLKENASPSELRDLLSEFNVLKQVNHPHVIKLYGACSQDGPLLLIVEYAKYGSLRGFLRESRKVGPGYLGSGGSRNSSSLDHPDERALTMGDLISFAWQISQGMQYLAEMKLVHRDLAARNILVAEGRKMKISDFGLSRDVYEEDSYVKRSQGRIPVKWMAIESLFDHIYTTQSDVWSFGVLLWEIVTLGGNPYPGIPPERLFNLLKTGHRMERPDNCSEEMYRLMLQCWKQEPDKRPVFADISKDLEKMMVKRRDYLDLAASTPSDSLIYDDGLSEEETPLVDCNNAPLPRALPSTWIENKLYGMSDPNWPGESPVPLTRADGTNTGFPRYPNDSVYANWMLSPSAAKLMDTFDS
T13 sequence (P22607 23-806): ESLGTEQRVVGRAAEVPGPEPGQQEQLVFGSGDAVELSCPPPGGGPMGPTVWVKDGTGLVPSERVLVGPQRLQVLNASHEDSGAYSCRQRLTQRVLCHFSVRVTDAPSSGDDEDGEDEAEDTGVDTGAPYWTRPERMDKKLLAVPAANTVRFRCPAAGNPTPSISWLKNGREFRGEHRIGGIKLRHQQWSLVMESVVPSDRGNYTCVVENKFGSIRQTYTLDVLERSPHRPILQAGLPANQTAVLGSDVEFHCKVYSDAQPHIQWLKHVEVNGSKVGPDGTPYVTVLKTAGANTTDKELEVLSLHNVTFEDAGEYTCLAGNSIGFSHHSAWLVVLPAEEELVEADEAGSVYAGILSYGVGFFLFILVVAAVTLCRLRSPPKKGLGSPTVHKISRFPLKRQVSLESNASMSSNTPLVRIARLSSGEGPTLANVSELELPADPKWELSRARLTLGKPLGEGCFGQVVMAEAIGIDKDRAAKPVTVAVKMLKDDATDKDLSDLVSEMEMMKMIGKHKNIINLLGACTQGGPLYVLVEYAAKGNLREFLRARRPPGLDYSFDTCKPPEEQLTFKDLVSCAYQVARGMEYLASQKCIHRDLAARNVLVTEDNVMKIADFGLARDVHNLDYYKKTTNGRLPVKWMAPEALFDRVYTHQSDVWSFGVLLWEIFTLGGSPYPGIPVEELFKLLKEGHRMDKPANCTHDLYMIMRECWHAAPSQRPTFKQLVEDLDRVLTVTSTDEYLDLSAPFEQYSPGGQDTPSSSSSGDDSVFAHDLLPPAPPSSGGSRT
T8 sequence (O14757 whole entry): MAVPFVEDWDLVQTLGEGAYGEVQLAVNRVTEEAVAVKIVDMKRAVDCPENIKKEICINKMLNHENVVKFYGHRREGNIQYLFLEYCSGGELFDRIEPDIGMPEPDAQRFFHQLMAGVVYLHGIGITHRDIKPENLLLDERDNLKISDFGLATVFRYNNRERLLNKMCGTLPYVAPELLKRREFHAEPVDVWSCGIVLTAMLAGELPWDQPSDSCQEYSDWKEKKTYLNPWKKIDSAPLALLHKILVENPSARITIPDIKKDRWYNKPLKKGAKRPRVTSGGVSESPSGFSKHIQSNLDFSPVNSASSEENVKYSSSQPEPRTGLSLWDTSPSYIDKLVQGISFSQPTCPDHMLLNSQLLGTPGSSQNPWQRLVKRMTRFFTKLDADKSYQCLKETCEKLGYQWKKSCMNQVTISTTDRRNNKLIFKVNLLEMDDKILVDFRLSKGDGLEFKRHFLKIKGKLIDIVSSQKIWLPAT
T7 sequence (P50750 whole entry): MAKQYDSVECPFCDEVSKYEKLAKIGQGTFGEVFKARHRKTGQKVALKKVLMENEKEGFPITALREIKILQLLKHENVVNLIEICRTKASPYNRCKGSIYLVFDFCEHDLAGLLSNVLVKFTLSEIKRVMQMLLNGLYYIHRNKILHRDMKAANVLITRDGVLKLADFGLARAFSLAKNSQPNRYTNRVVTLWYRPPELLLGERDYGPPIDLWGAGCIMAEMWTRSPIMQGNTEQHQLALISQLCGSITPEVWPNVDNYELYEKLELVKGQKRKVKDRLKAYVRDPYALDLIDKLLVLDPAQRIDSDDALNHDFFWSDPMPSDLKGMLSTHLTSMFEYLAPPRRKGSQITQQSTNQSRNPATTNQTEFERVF

COc1ccc2c3ccnc(C)c3n(CCN(C)C)c2c1.O=C(O)/C=C/C(=O)O [HTW_A_8 fumarate, 2-(7-methoxy-1-methyl-9H-pyrido[3,4-b]indol-9-yl)-N,N-dimethylethan-1-amine Fumarate Salt (2:3)]
remaining binding at 10 µM [1]: 81%
remaining binding at 10 µM [2]: 100%
remaining binding at 10 µM [3]: 96%
remaining binding at 10 µM [4]: 100%
remaining binding at 10 µM [5]: 100%
remaining binding at 10 µM [6]: 15%
remaining binding at 10 µM [7]: 100%
remaining binding at 10 µM [8]: 93%
remaining binding at 10 µM [9]: 88%
remaining binding at 10 µM [10]: 100%
remaining binding at 10 µM [11]: 100%
remaining binding at 10 µM [12]: 95%
remaining binding at 10 µM [13]: 95%
remaining binding at 10 µM [14]: 85%
remaining binding at 10 µM [15]: 100%
remaining binding at 10 µM [16]: 81%
remaining binding at 10 µM [17]: 100%
remaining binding at 10 µM [18]: 100%
remaining binding at 10 µM [19]: 91%
remaining binding at 10 µM [20]: 100%
remaining binding at 10 µM [21]: 100%
remaining binding at 10 µM [22]: 84%
remaining binding at 10 µM [23]: 96%
remaining binding at 10 µM [24]: 97%
remaining binding at 10 µM [25]: 95%
remaining binding at 10 µM [26]: 73%
remaining binding at 10 µM [27]: 99%
remaining binding at 10 µM [28]: 81%
remaining binding at 10 µM [29]: 99%
remaining binding at 10 µM [30]: 100%
remaining binding at 10 µM [31]: 100%

COc1ccc2c(c1)[nH]c1c(C)nccc12 [Harmine, harmine]
Percent Control [32]: 79%
Percent Control [33]: 83%
Percent Control [34]: 58%
Percent Control [35]: 49%
Percent Control [36]: 43%
Percent Control [37]: 91%
Percent Control [38]: 72%
